In test [1] the target is T1, FP receptor (Homo sapiens, UniProt P43088). Briefly: Antagonist Ca2+ assay: FP antagonists on PGF2α-stimulated Ca2+ transients in MYLA cells. Type of test: cell-based. On the set-up: endogenous in cells; host or cells: MYLA cells (conditionally immortalised human myometrial cells; hTERT + temperature-sensitive SV40 large T).
Procedure: (§1) MYLA cells were grown to 95%–100% confluency in 3 cm^2 glass-bottom dishes (MatTek Corporation, MA, United States). The cells were serum starved for 24–48 h with 2% DMEM/F12 media and then incubated with 5 μM Calbryte^TM 520 AM (Stratech Scientific Ltd., Ely, United Kingdom) for 60 min at 37°C in a 95%/5% air/CO2-humidified environment, followed by 15 min at room temperature in the dark. […] The plates were then loaded on the stage of an Olympus IX81 inverted microscope and visualised with a 10x objective lens. Temperatures were maintained at 37°C. Calbryte^TM 520 AM was excited at Ex/Em: 490/525 nm. The cells were imaged for 3 min to allow any initial LED-induced Ca^2+ signalling to subside. […] Fluorescence was captured at a rate of one frame per second for 3 min, with agonist/antagonist injections occurring after a 30-s basal period.
(§2) Data analysis: Videos were visualised, and data were analysed using ImageJ, the image analysis software. […] The frequency of Ca^2+ oscillations was calculated as the average number of oscillations over time in seconds (Hz). All data were visualised using the GraphPad Prism 9 software.
(§3) Experiments were repeated on MYLA cells, where N represents the number of biological repeats.
In test [2] the target is T1, FP receptor. Briefly: [35S]-GTPγS immunoprecipitation assay of Gα-subunit coupling in MYLA cell membranes. In general terms: GTPγS is a poorly hydrolysed GTP analogue; its binding reports G protein activation.
Procedure: Tissue preparation: MYLA cells were grown to 95%–100% confluency in a T175 flask, lifted, and pelleted via standard cell culture techniques. The harvested cells were homogenised in ice-cold lysis buffer (composition (mM): HEPES, 20; EDTA, 1; MgCl2, 2; KCl, 10; DTT, 2; pH, 7.4) using a Coleman handheld homogeniser. The homogenates were cleared (1,000×g, 10 min, 4°C) and membranes were collected by centrifugation (16,100×g, 90 min, 4°C). The membranes were resuspended in freezing buffer [composition (mM): HEPES, 10; MgCl2, 1; DTT, 1; pH, 7.4], where the protein concentration was adjusted to 1.5 mg/mL and rapidly frozen in liquid nitrogen. The membranes were stored at −80°C until required.
Radioligand binding assay: 75 μg of membrane was added to 50 μL of assay buffer [composition (mM): HEPES, 10; MgCl2, 10; NaCl, 100; pH, 7.4] containing 1 nM [^35S]-GTPγS (1,250 Ci/mmol) and 10 μM GDP, with or without agonist and antagonists as required, and incubated at 30°C for 2 min. Non-specific binding (NSB) was determined by the inclusion of 10 μM unlabelled GTPγS. Incubation was terminated by the addition of 900 μL of ice-cold assay buffer, and the samples were transferred to ice. The cell membrane was recovered from the reaction mixture by centrifugation (16,100×g, 6 min, 4°C), and the supernatant was removed by aspiration. Membrane pellets were solubilised by the addition of 50 μL of ice-cold solubilisation buffer [composition (mM): Tris-HCl, 100; NaCl, 200; EDTA, 1; IGEPAL CA 630, 1.25% (v/v); 0.2% (w/v) SDS; pH, 7.4] and vortex mixing. […] The beads were washed and pelleted thrice with 500 μL of solubilisation buffer (less SDS) before re-suspension in Pico-Flour^TM scintillation cocktail (Perkin Elmer, Buckinghamshire, United Kingdom) where [^35S]-GTPγS was determined by standard liquid scintillation counting methods.
Data analysis: Specific binding was determined by CPM values and expressed as a % increase over basal (unstimulated), and plotted using the GraphPad Prism 9 software. […]
Test [3] deals with MYLA cells. The test can be described thus: RT-qPCR of OXTR, CALD1 and MYLK expression in MYLA cells. Type of test: cell-based, human. The settings on record: for OXTR, CALD1, and MYLK expression at 48 h (RT-qPCR): 1 µM PGF2α + 1 µM antagonist vs 1 µM PGF2α; for Expression of OXTR, CALD1, and MYLK (RT-qPCR time series): 1 µM PGF2α + 1 µM antagonist, 1–48 h.
Test [4] relates to induced pulmonary fibrosis mouse models. The arrangement: method as in Beck et al., 2020. The settings on record: ref Beck et al., 2020; cited from earlier work.
Test [5] concerns MYLA cells. Briefly: RNA-Seq time series of marker gene expression in MYLA cells. The test is classed as cell-based, human. Here is the method:
The MYLA cells were seeded into a T75 flask and allowed to grow to 95%–100% confluency. […] The cells were harvested at T = 1, 3, 6, 9, 12, 24, and 48 h, pelleted (1,200 rpm, 5 min, 4°C), and snap frozen on dry ice before storage at −80°C.
RNA was extracted from pelleted cells using the GenElute^TM Total RNA Purification Kit (Sigma Aldrich, Poole, United Kingdom) according to the manufacturer’s instructions. RNA concentration and purity were determined using a NanoDrop 1000 Spectrophotometer (Thermo Fisher Scientific, Loughborough, United Kingdom). All RNA samples were stored at −80°C until use.
RNA quality was verified using a Bioanalyzer according to the manufacturer’s instructions (Eukaryote Total RNA Nano, Agilent). Illumina TruSeq RNA libraries were prepared and sequenced using a NextSeq 500 with a high-output 75 bp cycle cartridge (Illumina, Cambridge, United Kingdom) by the University of Warwick Genomic Facility.
bcl2fastq v2.20.0.422 was used for demultiplexing each sample. FastQC v0.11.9 was used to quality control check the demultiplexed FastQC files, and MultiQC v1.9 consolidated the QC reports. Reads were aligned to the human reference genome build GRCh38 release 86 using STAR version 2.7.9a. The number of reads mapped to each genomic feature was calculated with featureCounts v2.0.1. The counts were imported into R Studio and analysed with the DESeq2 package.
Data analysis: TPM data were processed and analysed using R Studio and then plotted using the GraphPad 9 software.
The experiments were technical triplicates of biological triplicate samples taken from seven time points. The data in Figures 8–10 were analysed by two-way ANOVA and post hoc Dunnett’s multiple comparison test comparing treatments to the ethanol vehicle.

For test [6], the target named is T1, FP receptor. The settings on record: MYLA cells.
Procedure: as §1, §2, §3
Test [7] relates to transfected HEK-293 cell lines. On the set-up: method as in Martos et al., 2016. The following applies: ref Martos et al., 2016; cited from earlier work.
The mark [8] stands for this setting: 300 pM–10 µM antagonist in the presence of 1 µM PGF2α, N = 3, read-out: IC50, effect on AUC.
[9] abbreviates: 300 pM–10 µM antagonist in the presence of 1 µM PGF2α, N = 3, read-out: IC50, effect on Fmax.
Where [10] appears, read: 300 pM–10 µM antagonist in the presence of 1 µM PGF2α, N = 3, read-out: IC50, effect on frequency of Ca2+ oscillations.
The mark [11] stands for this setting: four-parameter fit, bottom constrained to 0.
The mark [12] stands for this setting: normalised to averaged ionomycin Fmax.

Molecules are shown by their SMILES. Like-named read-outs stand apart in the source and are kept apart here.

T1 sequence (P43088 whole entry): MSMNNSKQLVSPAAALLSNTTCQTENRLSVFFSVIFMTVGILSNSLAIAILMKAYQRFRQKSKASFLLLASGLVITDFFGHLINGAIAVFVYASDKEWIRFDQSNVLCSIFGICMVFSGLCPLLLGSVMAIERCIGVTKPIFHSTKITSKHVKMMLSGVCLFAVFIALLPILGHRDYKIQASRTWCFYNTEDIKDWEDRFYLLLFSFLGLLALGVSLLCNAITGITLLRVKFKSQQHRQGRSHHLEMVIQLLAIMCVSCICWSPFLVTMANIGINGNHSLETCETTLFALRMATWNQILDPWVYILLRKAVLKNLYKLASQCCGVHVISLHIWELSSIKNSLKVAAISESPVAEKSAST

`Cc1c(-c2ccccc2)nc2ccc(Br)cc2c1C(=O)NCC(CCC(=O)O)c1ccccc1Cl` (stereo not drawn) [Compound 39/40, 5-(6-bromo-3-methyl-2-phenylquinoline-4-carboxamido)-4-(2-chlorophenyl) pentanoic acid]: at FP receptor [1] (setting [8]), the IC50 turned out to be 90 nM. At FP receptor [1] (setting [9]), the IC50 was determined as 284 nM. For the same molecule, the IC50 at FP receptor [1] (setting [10]) stood at 154 nM. Moreover, on FP receptor [1] (in the presence of 1 µM PGF2α), the “HillSlope ± SD, effect on AUC” value was −0.98 ± 0.27; the “HillSlope ± SD, effect on Fmax” value was −0.54 ± 1.63; the “HillSlope ± SD, effect on frequency” value is given as −2.00 ± 0.56. In addition, the “PGF2α-stimulated coupling to Gαq/11” value at FP receptor [2] (1 µM compound 39/40 + 1 µM PGF2α, 2 min) is given as “reversed”. In addition, in the test on MYLA cells [3], the “OXTR, CALD1, and MYLK expression at 48 h (RT-qPCR)” value is given as “significant decrease”; the “Expression of OXTR, CALD1, and MYLK (RT-qPCR time series)” value is “reduced”.
`O=C(N[C@@H](CCO)c1ccc(F)cc1)[C@@H]1SCCN1S(=O)(=O)c1ccc(-c2ccccc2)cc1` [OBE002, [(S)-3-(biphenyl-4-sulfonyl)-thiazolidine-2-carboxylic acid [(S)-1-(4-fluorophenyl)-3-hydroxy-propyl]-amide]]: the IC50 on FP receptor [1] (setting [8]) stood at 180 nM; on FP receptor [1] (setting [9]), 78.3 nM; at FP receptor [1] (setting [10]), 1980 nM. For the same molecule, the “HillSlope ± SD, effect on AUC” value on FP receptor [1] (in the presence of 1 µM PGF2α) is reported as −0.41 ± 0.17. For the same molecule, the “HillSlope ± SD, effect on Fmax” value on FP receptor [1] (in the presence of 1 µM PGF2α) is reported as −0.38 ± 0.15. The “HillSlope ± SD, effect on frequency” value at FP receptor [1] (in the presence of 1 µM PGF2α) was −0.36 ± 0.19. For the same molecule, the “pIC50 ± SD, effect on Fmax” value on FP receptor [1] (in the presence of 1 µM PGF2α, N = 3) amounted to 7.11 ± 0.68.
As for `Cc1c(N2CCCC2)nc2ccc(Br)cc2c1C(=O)NC[C@H](CCC(=O)O)c1ccccc1Cl` [BAY-6672], in test [4], the “Effects in induced pulmonary fibrosis mouse models” value was “anti-inflammatory and antifibrotic effects”.
On to `Cc1c(N2CCCC2)nc2ccc(Br)cc2c1C(=O)NCC(CCC(=O)O)c1ccccc1Cl` (stereo not drawn) [Compound 46/47, 5-(6-bromo-3-methyl-2-(pyrrolidin-1-yl)quinoline-4-carboxamido)-4-(2-chlorophenyl)-pentanoic acid], for which, at FP receptor [1] (in the presence of 1 µM PGF2α), the “HillSlope ± SD, effect on AUC” value is given as −1.37 ± 0.68; the “HillSlope ± SD, effect on Fmax” value was −1.02 ± 0.40; the “HillSlope ± SD, effect on frequency” value is −0.69 ± 0.30.
In the case of `O=C(N[C@H](c1ccc(F)cc1)[C@H]1CCS(=O)(=O)C1)[C@@H]1CCN1S(=O)(=O)c1ccc(-c2cccnc2)cc1` [Compound N582707, (S)-N-((S)-((R)-1,1-dioxidotetrahydrothiophen-3-yl)(4-fluorophenyl)methyl)-1-((4-(pyridin-3-yl)phenyl)sulfonyl)azetidine-2-carboxamide], the IC50 is 50.4 nM on FP receptor [1] (setting [8]); 21.3 nM on FP receptor [1] (setting [9]); 22.1 nM at FP receptor [1] (setting [10]); 21.9 nM at FP receptor [1] (in the presence of 1 µM PGF2α, N = 3, read-out: pIC50 ± SD, effect on frequency of Ca2+ oscillations (converted)). For the same molecule, the “HillSlope ± SD, effect on Fmax” value at FP receptor [1] (in the presence of 1 µM PGF2α) was −0.49 ± 0.20. On FP receptor [1] (in the presence of 1 µM PGF2α), the “HillSlope ± SD, effect on frequency” value is −0.55 ± 0.17. For the same molecule, in the test with MYLA cells [5] (1 µM PGF2α + 1 µM FP antagonist, up to 48 h), the “Expression of fibroblast marker genes (DCN, FBLN1, LOXL1, PDGFRA)” value is given as “increased the expression”. Moreover, the “OXTR, CALD1, and MYLK expression at 48 h (RT-qPCR)” value in the test with MYLA cells [3] is given as “significant decrease”. The “Expression of OXTR, CALD1, and MYLK (RT-qPCR time series)” value in the test with MYLA cells [3] was “reduced”.
`CCCCC[C@H](O)/C=C/[C@@H]1[C@@H](C/C=C\CCCC(=O)O)[C@@H](O)C[C@H]1O` [PGF2α, prostaglandin F2α]: at FP receptor [2] (1 µM PGF2α vs basal, 2 min), the “[35S]-GTPγS binding to Gαq/11” value was “significantly increased”. Moreover, on FP receptor [2] (stimulation with PGF2α), the “Gαs and Gαi coupling” value is “no effect”. Further, in the test with MYLA cells [5] (1 µM PGF2α vs vehicle, 1–48 h), the “Expression of key genes involved in labour such as OXTR (also IL6, IL11)” value is recorded as “upregulated”. Besides, the “Expression of smooth muscle marker genes (ACTA2, CALD1, CNN1, COL4A1, COL4A2, MYLK, MYOCD, TAGLN, TGFB2, TGFB3)” value in the test on MYLA cells [5] (1 µM PGF2α, up to 48 h) was “increased expression”. Moreover, the “Effect on Fmax, AUC and frequency of intracellular Ca2+ oscillations compared to basal” value on FP receptor [6] (300 pM to 10 µM PGF2α) was “concentration-dependent increase”. For the same molecule, on FP receptor [6] (setting [11]), the “HillSlope ± SEM, AUC” value was 1.06 ± 0.45; the “HillSlope ± SEM, Fmax” value worked out at 0.91 ± 0.28; the “HillSlope ± SEM, Frequency” value was found to be 0.88 ± 0.33. For the same molecule, at FP receptor [6] (frequency of Ca2+ oscillations), the “Emax ± SEM, Frequency” value was 0.01 ± 0.01. Besides, on FP receptor [6] (setting [12]), the “Emax ± SEM, AUC” value worked out at 1.50 ± 0.14 and the “Emax ± SEM, Fmax” value worked out at 0.14 ± 0.01.
Turning to `CC(C)Cn1ncc2cc(Cl)cc(Cn3nc(N)c4cc(C(=O)O)ccc43)c21` [Compound 68, 3-amino-1-((5-chloro-1-isobutyl-1H-indazol-7-yl)methyl)-1H-indazole-5-carboxylic acid], the IC50 was 175 nM at FP receptor [1] (setting [8]); 194 nM on FP receptor [1] (setting [9]); 978 nM on FP receptor [1] (setting [10]); 89.1 nM on FP receptor [1] (in the presence of 1 µM PGF2α, N = 3, read-out: pIC50 ± SD, effect on AUC (converted)). At FP receptor [1] (in the presence of 1 µM PGF2α), the “HillSlope ± SD, effect on AUC” value is given as −0.44 ± 0.19. On FP receptor [1] (in the presence of 1 µM PGF2α), the “HillSlope ± SD, effect on Fmax” value is −0.47 ± 0.19. Also, at FP receptor [1] (in the presence of 1 µM PGF2α), the “HillSlope ± SD, effect on frequency” value is reported as −0.49 ± 0.17. The “Potency in FLIPR functional assays” value in test [7] is listed as “potent”.

The values are drawn from PMC10752971 (Frontiers in Pharmacology, 2023).
